Key:
somatostain (SS) = settings: pigs, poultry, fowls, goats, rabbits and fish; cited from earlier work
animals = settings: ingesting cysteamine directly; cited from earlier work
black & white dairy cows = experiment: Experiment 3: three-stage feeding trial, black & white dairy cows; type: in vivo; settings: control group, 40 g per cow every other day, versus 20 g daily (2.89 vs 2.73 wt %)
Excerpt: Thirty-two black & white dairy cows were used in the experiment and were randomly divided into four groups, namely test Groups I to III, and a control group. Each group had eight cows. […] There were three stages in the experiment. In the first stage of the experiment, the feed for the test Groups I to III of cows was mixed with the composition such that each cow in the three test groups was fed with 20 g, 30 g and 40 g of the composition respectively daily. No cysteamine-containing composition was mixed in the feed for the control group of cows. The first stage of the experiment lasted for thirty-seven days and was preceded by a three-day adaptation period. During the second stage of the experiment, the composition was not added to the feed for the three test groups of cows. However, each cow in the control group was fed with 20 g of the composition daily via its feed. The second stage of the experiment lasted for seven days. During the third stage of the experiment, the three test groups of cows were fed with the feed mixed with the composition such that 20 g of the composition was taken by each cow daily. Each cow in the control group was fed with 40 g of the composition every other day via the feed. The third stage of the experiment lasted for seven days. The daily milk yield, milk fat content, milk protein content and somatic cells in milk were measured and recorded. […]

[1] = exposed to air or at an elevated temperature; cited from earlier work

For `NCCS` [cysteamine], the “effect on somatostain (SS)” value (somatostain (SS)) is listed as “can deplete somatostain (SS)”, the gastro side effects (animals) is listed as “will cause undesirable gastro side effects” and the “increase of milk protein content” value (black & white dairy cows) is listed as 5.86%. The oxidation [1] was “readily oxidized”.
